This note sets out measurements from patent US11597727B2 (THE REGENTS OF THE UNIVERSITY OF CALIFORNIA, priority 2018, dated 2023).

T1 sequence (P17301 30-1181): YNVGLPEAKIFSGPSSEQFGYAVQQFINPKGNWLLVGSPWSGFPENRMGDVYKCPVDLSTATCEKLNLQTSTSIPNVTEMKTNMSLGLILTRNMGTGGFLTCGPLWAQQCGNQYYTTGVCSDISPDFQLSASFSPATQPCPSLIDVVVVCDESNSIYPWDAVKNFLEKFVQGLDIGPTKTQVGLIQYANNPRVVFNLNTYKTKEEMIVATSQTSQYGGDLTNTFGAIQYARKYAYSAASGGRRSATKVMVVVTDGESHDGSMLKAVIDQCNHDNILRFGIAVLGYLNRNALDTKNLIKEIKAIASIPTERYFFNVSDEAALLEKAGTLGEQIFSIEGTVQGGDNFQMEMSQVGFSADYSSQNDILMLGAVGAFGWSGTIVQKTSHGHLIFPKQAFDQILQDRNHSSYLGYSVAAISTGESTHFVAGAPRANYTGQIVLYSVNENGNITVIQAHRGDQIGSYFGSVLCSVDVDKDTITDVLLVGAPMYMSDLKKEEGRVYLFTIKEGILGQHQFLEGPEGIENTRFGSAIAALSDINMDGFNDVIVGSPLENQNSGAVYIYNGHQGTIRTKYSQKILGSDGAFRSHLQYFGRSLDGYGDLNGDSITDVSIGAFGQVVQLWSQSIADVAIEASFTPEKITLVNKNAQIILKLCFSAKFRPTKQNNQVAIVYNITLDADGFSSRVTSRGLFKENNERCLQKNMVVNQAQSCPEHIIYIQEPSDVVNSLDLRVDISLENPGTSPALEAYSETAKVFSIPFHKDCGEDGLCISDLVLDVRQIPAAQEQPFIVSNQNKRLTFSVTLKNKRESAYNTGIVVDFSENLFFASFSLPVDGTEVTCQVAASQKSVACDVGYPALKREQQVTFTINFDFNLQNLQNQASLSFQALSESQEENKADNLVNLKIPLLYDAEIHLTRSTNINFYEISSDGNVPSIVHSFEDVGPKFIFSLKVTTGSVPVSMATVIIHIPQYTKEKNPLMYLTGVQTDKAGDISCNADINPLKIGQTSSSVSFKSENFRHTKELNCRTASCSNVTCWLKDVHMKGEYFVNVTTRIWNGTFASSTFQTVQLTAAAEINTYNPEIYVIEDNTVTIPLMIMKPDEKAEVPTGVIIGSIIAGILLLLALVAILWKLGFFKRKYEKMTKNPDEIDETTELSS
T1 sequence (P05556 21-798): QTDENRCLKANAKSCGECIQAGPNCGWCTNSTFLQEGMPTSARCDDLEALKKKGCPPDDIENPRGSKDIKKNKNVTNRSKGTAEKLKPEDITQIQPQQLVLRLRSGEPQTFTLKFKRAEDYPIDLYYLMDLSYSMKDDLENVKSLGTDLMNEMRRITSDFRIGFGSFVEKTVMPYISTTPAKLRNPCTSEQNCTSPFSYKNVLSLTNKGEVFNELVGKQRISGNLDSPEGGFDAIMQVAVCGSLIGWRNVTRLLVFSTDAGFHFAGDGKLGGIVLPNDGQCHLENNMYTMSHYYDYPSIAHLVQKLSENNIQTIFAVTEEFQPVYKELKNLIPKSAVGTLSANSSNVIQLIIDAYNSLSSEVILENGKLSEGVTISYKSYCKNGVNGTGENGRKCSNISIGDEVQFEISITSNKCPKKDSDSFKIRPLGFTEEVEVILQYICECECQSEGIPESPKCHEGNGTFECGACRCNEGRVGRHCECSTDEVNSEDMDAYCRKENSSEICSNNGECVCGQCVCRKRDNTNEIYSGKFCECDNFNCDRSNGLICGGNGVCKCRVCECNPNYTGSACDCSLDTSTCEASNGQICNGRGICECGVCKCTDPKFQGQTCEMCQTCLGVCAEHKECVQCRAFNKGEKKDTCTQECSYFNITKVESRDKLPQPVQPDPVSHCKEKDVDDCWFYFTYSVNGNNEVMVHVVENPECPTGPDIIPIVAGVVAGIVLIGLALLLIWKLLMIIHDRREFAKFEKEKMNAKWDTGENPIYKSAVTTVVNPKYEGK

One experiment has as its target T1, integrin α2β1 (Homo sapiens, UniProt P05556+P17301). The experiment is described as follows: Cell adhesion assay, adhesion to collagen in vitro (cell type not stated for these values). In kind it is cell-based. Details: endogenous in cells. The following applies: compared with c15. As for the experimental part: (§1) Cell adhesion Assay: Ninety-six-well flat-bottomed tissue culture plates were coated with rat tail collagen I for 1 hour at 37° C. After incubation, wells were blocked with 1% BSA at 37° C. for 1 hour. Control wells were filled with 1% BSA. HT1080 (human fibrosarcoma) cells (or human airway smooth muscle cells) were detached and resuspended in serum-free DMEM. Cells were incubated with anti-integrin alpha2 antibody control or 10-fold dilutions of each compound with a starting concentration of 10 uM for 15 minutes at 4° C. before plating. The plates were centrifuged at 10 g for 5 minutes before incubation for 1 hour at 37° C. in humidified 5% CO2. Nonadherent cells were removed by centrifugation (top side down) at 10 g for 5 minutes. Attached cells were stained with 0.5% crystal violet, and the wells were washed with PBS. The relative number of cells in each well was evaluated after solubilization in 40 μl of 2% Triton X-100 by measuring absorbance at 595 nm in a microplate reader. All determinations were carried out in triplicate.
As for `O=C(NCc1ccccc1)NC[C@H](NC(=O)c1c(Cl)cccc1Cl)C(=O)O` [A2-4, (S)-3-(3-benzylureido)-2-(2,6-dichlorobenzamido)propanoic acid], the “fold less potent than c15 in a cell adhesion assay” value stood at 2 fold.

Another experiment has as its target T1, integrin α2β1. The experiment is described as follows: HT 1080 cell adhesion assay on rat tail collagen I. It is filed as cell-based. Details: HT1080 (human fibrosarcoma) cells (or human airway smooth muscle cells) were detached and resuspended in serum-free DMEM; endogenous in cells; host or cells: HT1080 human fibrosarcoma cells. The following applies: HT1080 (human fibrosarcoma) cells on rat tail collagen I, absorbance at 595 nm, triplicate; read-out: IC50s from HT 1080 Cell adhesion assay. As for the experimental part:
as §1
Regarding `O=C(NC[C@H](NC(=O)c1c(Cl)cccc1Cl)C(=O)O)NC12CC3CC(CC1C3)C2` [A2-145, (2S)-2-(2,6-dichlorobenzamido)-3-(3-(hexahydro-2,5-methanopentalen-3a(1H)-yl)ureido)propanoic acid], the IC50 fell in the range of 10 to 100 µM. Same read-out and setting: to `O=C(NCc1ccccc1)NC[C@H](NC(=O)c1c(F)cccc1Br)C(=O)O` [A2-36, (S)-3-(3-benzylureido)-2-(2-bromo-6-fluorobenzamido)propanoic acid] belongs 10 to 100 µM; to `CC1(C)C2CCC(CNC(=O)NC[C@H](NC(=O)c3c(Cl)cccc3Cl)C(=O)O)C1C2` (stereo partly drawn) [A2-173], 10 to 100 µM; to `Nc1ccc(CNC(=O)NC[C@H](NC(=O)c2c(Cl)cccc2Cl)C(=O)O)cc1` [KZ-1-37, (S)-3-(3-(4-aminobenzyl)ureido)-2-(2,6-dichlorobenzamido)propanoic acid], greater than 100 µM. Same read-out and setting: next, `O=C(N[C@@H](CNc1nccc(-c2ccccc2)n1)C(=O)O)c1c(Cl)cccc1Cl` [A2-73, (S)-2-(2,6-dichlorobenzamido)-3-((4-phenylpyrimidin-2-yl)amino)propanoic acid]: greater than 100 µM; `O=C(NC[C@H](NC(=O)c1c(Cl)cccc1Cl)C(=O)O)NC1Cc2ccccc2C1` [A2-84, (S)-2-(2,6-dichlorobenzamido)-3-(3-(2,3-dihydro-1H-inden-2-yl)ureido)propanoic acid]: 10 to 100 µM; `O=C(NC[C@H](NC(=O)c1c(Cl)cccc1Cl)C(=O)O)NCC12CC3CC(CC(Cl)(C3)C1)C2` [A2-156, (S)-3-(3-((3-chloroadamantan-1-yl)methyl)ureido)-2-(2,6-dichlorobenzamido)propanoic acid]: 10 to 100 µM. On the same count and under the same terms, to `O=C(NC[C@H](NC(=O)c1c(Cl)cccc1Cl)C(=O)O)NC12CC3CC(C1)CC(C(=O)O)(C3)C2` [A2-143, 3-(3-((S)-2-carboxy-2-(2,6-dichlorobenzamido)ethyl)ureido)adamantane-1-carboxylic acid] belongs 10 to 100 µM; to `CC(NC(=O)NCC(NC(=O)c1c(Cl)cccc1Cl)C(=O)O)C1CC2CCC1C2` [A2-176, (2S)-3-(3-(1-((1 S,4R)-bicyclo[2.2.1]heptan-2-yl)ethyl)ureido)-2-(2,6-dichlorobenzamido)propanoic acid], 10 to 100 µM; to `O=C(NC[C@H](NC(=O)c1c(Cl)cccc1Cl)C(=O)O)OCc1ccccc1` [A2-72, (S)-3-(((benzyloxy)carbonyl)amino)-2-(2,6-dichlorobenzamido)propanoic acid], greater than 100 µM. On to `O=C(NCc1cc(F)cc(F)c1)NC[C@H](NC(=O)c1c(Cl)cccc1Cl)C(=O)O` [KZ-1-32, (S)-2-(2,6-dichlorobenzamido)-3-(3-(3,5-difluorobenzyl)ureido)propanoic acid], for which the IC50 is greater than 100 µM.

In the case of `CC(C)(C)OC(=O)NC[C@H](NC(=O)c1c(Cl)cccc1Cl)C(=O)O` [A2-39, (S)-3-((tert-butoxycarbonyl)amino)-2-(2,6-dichlorobenzamido)propanoic acid], the IC50 was in the range of 10 to 100 µM. Still for that read-out and setting: to `O=C(NCC1CCc2ccccc21)NC[C@H](NC(=O)c1c(Cl)cccc1Cl)C(=O)O` (stereo partly drawn) [A2-123] belongs less than 10 µM; to `O=C(NC[C@H](NC(=O)c1c(Cl)cccc1Cl)C(=O)O)N[C@@H]1CCc2ccccc21` [A2-85, (S)-2-(2,6-dichlorobenzamido)-3-(3-((R)-2,3-dihydro-1H-inden-1-yl)ureido)propanoic acid], less than 10 µM. The same measure, in the same setting: next, `CC(C)(C)NC(=O)NC[C@H](NC(=O)c1c(Cl)cccc1Cl)C(=O)O`: greater than 100 µM. On the same count and under the same terms, to `O=C(N[C@@H](CNC(=S)NCc1ccccc1)C(=O)O)c1c(Cl)cccc1Cl` [KZ-1-21, (S)-3-(3-benzylthioureido)-2-(2,6-dichlorobenzamido)propanoic acid] belongs 10 to 100 µM. As to `O=C(NC[C@H](NC(=O)c1c(Cl)cccc1Cl)C(=O)O)NC1CC2CCC1C2` (stereo partly drawn) [A2-172, (2S)-3-(3-(bicyclo[2.2.1]heptan-2-yl)ureido)-2-(2,6-dichlorobenzamido)propanoic acid], the IC50 is less than 10 µM. Still for that read-out and setting: next, `COc1cccc(OC)c1C(=O)N[C@@H](CNC(=O)NCc1ccccc1)C(=O)O` [A2-28, (S)-3-(3-benzylureido)-2-(2,6-dimethoxybenzamido)propanoic acid]: greater than 100 µM. On the same count and under the same terms, to `O=C(NCC1CC2(CCC2)C1)NC[C@H](NC(=O)c1c(Cl)cccc1Cl)C(=O)O` [A2-178, (S)-2-(2,6-dichlorobenzamido)-3-(3-(spiro[3.3]heptan-2-ylmethyl)ureido)propanoic acid] belongs 10 to 100 µM.

In the case of `O=C(NC[C@H](NC(=O)c1c(Cl)cccc1Cl)C(=O)O)NCC12CC3CC(CC(O)(C3)C1)C2` [A2-153], the IC50 lay in the range of 10 to 100 µM. Consider `O=C(NC[C@H](NC(=O)c1c(Cl)cccc1Cl)C(=O)O)N[C@@H]1CCCc2ccccc21` [A2-124, (2S)-2-(2,6-dichlorobenzamido)-3-(3-(1,2,3,4-tetrahydronaphthalen-1-yl)ureido)propanoic acid], for which the IC50 was less than 10 µM.

Consider `CCN(CC)C(=O)NC[C@H](NC(=O)c1c(Cl)cccc1Cl)C(=O)O` [A2-71, (S)-2-(2,6-dichlorobenzamido)-3-(3,3-diethylureido)propanoic acid], for which the IC50 was greater than 100 µM. For `CC1(C)C2CCC1(C)C(NC(=O)NC[C@H](NC(=O)c1c(Cl)cccc1Cl)C(=O)O)C2` (stereo partly drawn) [A2-171, (2S)-2-(2,6-dichlorobenzamido)-3-(3-(1,7,7-trimethylbicyclo[2.2.1]heptan-2-yl)ureido)propanoic acid], the IC50 was less than 10 µM.

As for `O=C(NCC1CC12CCCCC2)NC[C@H](NC(=O)c1c(Cl)cccc1Cl)C(=O)O` (stereo partly drawn) [A2-177, (2S)-2-(2,6-dichlorobenzamido)-3-(3-(spiro[2.51]octan-1-ylmethyl)ureido)propanoic acid], the IC50 lay in the range of 10 to 100 µM. Still for that read-out and setting: next, `O=C(NC[C@H](NC(=O)c1c(Cl)cccc1Cl)C(=O)O)NC12CC3CC(CC(O)(C3)C1)C2` [A2-144, (S)-2-(2,6-dichlorobenzamido)-3-(3-(3-hydroxyadamantan-1-yl)ureido)propanoic acid]: 10 to 100 µM.

Turning to `O=C(NCc1ccccc1Cl)NC[C@H](NC(=O)c1c(Cl)cccc1Cl)C(=O)O` [KZ-1-18, (S)-3-(3-(2-chlorobenzyl)ureido)-2-(2,6-dichlorobenzamido)propanoic acid], the IC50 was in the range of 10 to 100 µM.
